Test results published in patent publication US20170349532A1, “CATIONIC LIPID” (Kyowa Hakko Kirin Co., Ltd., priority 2011, published 2017).

Assay: Average particle diameter of preparation (Zetasizer Nano ZS)
Assay type: physicochemical
Conditions: for Particle diameter of Preparetion: average particle diameter of cationic lipid/nucleic acid complex, Example 118 preparation: compound/PEG-DMPE Na/DSPC/cholesterol with apo-b siRNA
From the text: Preparations were produced using the compounds obtained in Examples 1 to 117, as follows.
APO-B siRNA was used as the nucleic acid. APO-B siRNA suppresses expression of an apolipoprotein-B (hereinafter, “apo-b”) gene and has a sense strand with the base sequence 5′-GmUCAmUCACACmUGAAmUACCAAmU-3′ (the sugars attached to the bases appended with m are 2′-O-methyl-substituted riboses), and an antisense strand with the base sequence 5′-[…]-3′ (the 5′-end is phosphorylated). The sense strand and the antisense strand were obtained from Nippon EGT, GeneDesign, Inc., Invitrogen or Hokkaido System Science Co., Ltd., and annealed to prepare the nucleic acid (hereinafter, “apo-b siRNA”).
A solution comprising the constituent components was prepared by dissolving each of the weighed samples in 90 vol % ethanol in 8.947/1.059/5.708/13.697 mmol/L [compounds 1 to 117 obtained in Examples 1 to 117/sodium 1,2-dimyristoyl-sn-glycero-3-phosphoethanolamine-N-(methoxy(polyethylene glycol)-2000) (PEG-DMPE Na,N-(carbonylmethoxypolyethylene glycol 2000)-1,2-dimyristoyl-sn-glycero-3-phosphoethanolamine sodium salt, NOF Corporation)/distearoylphosphatidyl choline (DSPC, 1,2-distearoyl-sn-glycero-3-phosphocholine, NOF Corporation)/cholesterol (Avanti Polar Lipids)]. Separately, apo-b siRNA/distilled water (24 mg/mL) was diluted with a Tris-EDTA buffer (200 mM Tris-HCl, 20 mM EDTA, Invitrogen) and a 20 mM citric acid buffer (pH 5.0) to prepare a 1.5 mg/mL apo-b siRNA aqueous solution (2 mM Tris-EDTA/20 mM citric acid buffer, pH 5.0).
The resulting lipid solution was heated to 37° C., and a 100-μL portion was transferred to a preparation container. The apo-b siRNA aqueous solution (100 μL) was then added thereto while being stirred. Then, a 20 mM citric acid buffer (containing 300 mM NaCl, pH 6.0; 200 μL) was added to the lipid nucleic acid mixed suspension (200 μL) while being stirred. The siRNA concentration was brought to 10 μM by dropping a Dulbecco phosphate buffer (DPBS, Invitrogen; 662 μL), and preparations (compositions comprising compounds 1 to 117 and the nucleic acid) were obtained.
The average particle diameter of the complex between the cationic lipis and the nucleic acid in each preparation was measured with a particle diameter measurement device (Malvern; Zetasizer Nano ZS).

Row | Particle diameter of Preparetion [nm] | average particle diameter of the complex between the cationic lipis and the nucleic acid in the preparation (Comparative Examples 1 to 8, prepared as Example 118 with apo-b siRNA) [nm] | SMILES
1 | 143.5 | – | CCCCCC/C=C\CCCCCCCCOC[C@@H]1CNC[C@H]1COCCCCCCCC/C=C\CCCCCC (relative stereo) [Compound 44, trans-3,4-bis(((Z)-Hexadec-9-enyloxy)methyl)pyrrolidine]
2 | 123.9 | – | CCCCCC/C=C\CCCCCCCCOC[C@@H]1CN(C)C[C@H]1COCCCCCCCC/C=C\CCCCCC (relative stereo) [Compound 51, trans-3,4-bis(((Z)-Hexadec-9-enyloxy)methyl)-1-methylpyrrolidine]
3 | 148.7 | – | CCCCCCCC/C=C\CCCCCCCCOC[C@@H]1CNC[C@H]1COCCCCCCCC/C=C\CCCCCCCC (relative stereo) [Compound 101, trans-3,4-bis(((Z)-Octadec-9-enyloxy)methyl)pyrrolidine]
4 | 133.0 | – | CCCCC/C=C\C/C=C\CCCCCCCCOC[C@@H]1CNC[C@H]1COCCCCCCCC/C=C\C/C=C\CCCCC (relative stereo) [Compound 102, trans-3,4-bis(((9Z,12Z)-Octadec-9,12-dienyloxy)methyl)pyrrolidine]
5 | 141.8 | – | CCCCC/C=C\C/C=C\CCCCCCCCCCOC[C@@H]1CNC[C@H]1COCCCCCCCCCC/C=C\C/C=C\CCCCC (relative stereo) [Compound 103, trans-3,4-bis(((11Z,14Z)-Icos-11,14-dienyloxy)methyl)pyrrolidine]
6 | 141.5 | – | CCCCCCCC/C=C\CCCCCCCC(=O)OC[C@@H]1CNC[C@H]1COC(=O)CCCCCCC/C=C\CCCCCCCC (relative stereo) [Compound 104, trans-3,4-bis(((Z)-Octadec-9-enoyloxy)methyl)pyrrolidine]
7 | 125.6 | – | CCCCC/C=C\C/C=C\CCCCCCCC(=O)OC[C@@H]1CNC[C@H]1COC(=O)CCCCCCC/C=C\C/C=C\CCCCC (relative stereo) [Compound 105, trans-3,4-bis(((9Z,12Z)-Octadec-9,12-dienoyloxy)methyl)pyrrolidine]
8 | 139.2 | – | CCCCCCCC/C=C\CCCCCCCCOC[C@@H]1CN(C)C[C@H]1COCCCCCCCC/C=C\CCCCCCCC (relative stereo) [Compound 106, trans-1-Methyl-3,4-bis(((Z)-octadec-9-enyloxy)methyl)pyrrolidine]
9 | 139.1 | – | CCCCC/C=C\C/C=C\CCCCCCCCOC[C@@H]1CN(C)C[C@H]1COCCCCCCCC/C=C\C/C=C\CCCCC (relative stereo) [Compound 107, trans-1-Methyl-3,4-bis(((9Z,12Z)-octadec-9,12-dienyloxy)methyl)pyrrolidine]
10 | 144.9 | – | CCCCC/C=C\C/C=C\CCCCCCCCCCOC[C@@H]1CN(C)C[C@H]1COCCCCCCCCCC/C=C\C/C=C\CCCCC (relative stereo) [Compound 108, trans-3,4-bis(((11Z,14Z)-Icos-11,14-dienyloxy)methyl)-1-methylpyrrolidine]
11 | 129.6 | – | CCCCCCCC/C=C\CCCCCCCC(=O)OC[C@@H]1CN(C)C[C@H]1COC(=O)CCCCCCC/C=C\CCCCCCCC (relative stereo) [Compound 109, trans-1-Methyl-3,4-bis(((Z)-octadec-9-enoyloxy)methyl)pyrrolidine]
12 | 112.0 | – | CCCCCCCC/C=C\CCCCCCCCOC[C@@H]1C[N+](C)(C)C[C@H]1COCCCCCCCC/C=C\CCCCCCCC.[Cl-] (relative stereo) [Compound 111, trans-1,1-Dimethyl-3,4-bis(((Z)-octadec-9-enyloxy)methyl)pyrrolidinium chloride]
13 | 119.2 | – | CCCCC/C=C\C/C=C\CCCCCCCCOC[C@@H]1C[N+](C)(C)C[C@H]1COCCCCCCCC/C=C\C/C=C\CCCCC.[Cl-] (relative stereo) [Compound 112, trans-1,1-Dimethyl-3,4-bis(((9Z,12Z)-octadec-9,12-dienyloxy)methyl)pyrrolidinium chloride]
14 | 103.5 | – | CCCCCCCC/C=C\CCCCCCCC(=O)OC[C@@H]1C[N+](C)(C)C[C@H]1COC(=O)CCCCCCC/C=C\CCCCCCCC.[Cl-] (relative stereo) [Compound 113, trans-1,1-Dimethyl-3,4-bis(((Z)-octadec-9-enoyloxy)methyl)pyrrolidinium chloride]
15 | 108.2 | – | CCCCC/C=C\C/C=C\CCCCCCCC(=O)OC[C@@H]1C[N+](C)(C)C[C@H]1COC(=O)CCCCCCC/C=C\C/C=C\CCCCC.[Cl-] (relative stereo) [Compound 114, trans-1,1-Dimethyl-3,4-bis(((9Z,12Z)-octadec-9,12-dienoyloxy)methyl)pyrrolidinium chloride]
16 | 150.0 | – | CCCCC/C=C\C/C=C\CCCCCCCCO[C@H]1CNC[C@@H]1OCCCCCCCC/C=C\C/C=C\CCCCC (stereo in doubt) [Compound 43, (3S,4S)-3,4-bis((9Z,12Z)-Octadec-9,12-dienyloxy)pyrrolidine]
17 | 129.2 | – | CCCCC/C=C\C/C=C\CCCCCCCCO[C@H]1CN(C)C[C@@H]1OCCCCCCCC/C=C\C/C=C\CCCCC (stereo in doubt) [Compound 50, (3S,4S)-1-Methyl-3,4-bis((9Z,12Z)-octadec-9,12-dienyloxy)pyrrolidine]
18 | – | 167.8 | CCCCC/C=C\C/C=C\CCCCCCCCOC1CN(Cc2ccccc2)C[C@H]1OCCCCCCCC/C=C\C/C=C\CCCCC (stereo in doubt) [Compound VI-3, (3R,4R)-1-Benzyl-3,4-bis((9Z,12Z)-octadec-9,12-dienyloxy)pyrrolidine, reference compound]
19 | 137.4 | – | CCCCC/C=C\C/C=C\CCCCCCCCO[C@@H]1CNC[C@H]1OCCCCCCCC/C=C\C/C=C\CCCCC [Compound 1, (3R,4R)-3,4-bis((9Z,12Z)-Octadec-9,12-dienyloxy)pyrrolidine]
20 | 139.6 | – | CCCCC/C=C\C/C=C\CCCCCCCC(=O)O[C@@H]1CNC[C@H]1OC(=O)CCCCCCC/C=C\C/C=C\CCCCC [Compound 2, (3R,4R)-Pyrrolidine-3,4-diyl di((9Z,12Z)-octadec-9,12-dienoate)]
21 | 152.8 | – | CCCCC/C=C\C/C=C\CCCCCCCCO[C@H]1CNC[C@H]1OCCCCCCCC/C=C\C/C=C\CCCCC [Compound 3, (3R,4S)-3,4-bis((9Z,12Z)-Octadec-9,12-dienyloxy)pyrrolidine]
22 | 160.6 | – | CCCCCCCC/C=C\CCCCCCCCO[C@@H]1CNC[C@H]1OCCCCCCCC/C=C\CCCCCCCC [Compound 4, (3R,4R)-3,4-bis((Z)-Octadec-9-enyloxy)pyrrolidine]
23 | 154.2 | – | CCCCCCCCCCCCCCO[C@@H]1CNC[C@H]1OCCCCCCCCCCCCCC [Compound 5, (3R,4R)-3,4-bis(Tetradecyloxy)pyrrolidine]
24 | 140.3 | – | CCCCCC/C=C\CCCCCCCCO[C@@H]1CNC[C@H]1OCCCCCCCC/C=C\CCCCCC [Compound 6, (3R,4R)-3,4-bis((Z)-Hexadec-9-enyloxy)pyrrolidine]
25 | 148.7 | – | CCCCCCCCCCC/C=C\CCCCCO[C@@H]1CNC[C@H]1OCCCCC/C=C\CCCCCCCCCCC [Compound 7, (3R,4R)-3,4-bis((Z)-Octadec-6-enyloxy)pyrrolidine]
